The MIC is the lowest concentration found to suppress growth. Lower therefore signals greater potency.

From DBAASP come the findings set out here.

Test in all cases: ≥ marks a high value that may be exact or a test limit, other limits are often not marked, values filed in µg/mL are converted to µM
Assay [1] relates to Streptococcus pyogenes GAS M1T1.
Assay [2] relates to Pseudomonas aeruginosa PAO1.
Assay [3] has as its system Escherichia coli BL21.
Assay [4] has as its system Xanthomonas axonopodis pv. phaseoli ATCC 9563.
The test system of assay [5] is Pseudomonas syringae.
In assay [6] the test system is Klebsiella pneumoniae CGMCC 1.1736.
Assay [7] concerns Pseudomonas aeruginosa CGMCC 1.2421.
Assay [8] relates to Staphylococcus epidermidis CGMCC 1.4260.
Assay [9] deals with Staphylococcus aureus CGMCC 1.8721.
Assay [10] relates to Escherichia coli CGMCC 1.8732.
Assay [11] relates to Bacillus subtilis CGMCC 1.3376.
Assay [12] has as its system Staphylococcus aureus ATCC 6538.
Assay [13] concerns Escherichia coli K-12.
Assay [14] concerns Bacillus subtilis ATCC 6633.
Assay [15] deals with Micrococcus luteus NCIMB 13267.
The subject of assay [16] is Pseudomonas aeruginosa ATCC 27853.
For assay [17], the system named is Escherichia coli ATCC 11775.
For assay [18], the system named is Staphylococcus aureus ATCC 29213.
Assay [19] deals with Staphylococcus aureus ATCC BAA-44.
The subject of assay [20] is Acinetobacter baumannii ATCC 19606.
Assay [21] has as its system Pseudomonas aeruginosa ATCC 25668.
Assay [22] has as its system Enterococcus faecalis ATCC 7080.
The test system of assay [23] is Staphylococcus epidermidis ATCC 51625.
Assay [24] has as its system Staphylococcus epidermidis ATCC 12228.
In assay [25] the test system is Staphylococcus aureus ATCC 33591.
Assay [26] relates to Staphylococcus aureus ATCC 25923.
Assay [27] has as its system Escherichia coli ATCC 25322.
For assay [28], the system named is Escherichia coli MC1061.
The subject of assay [29] is Micrococcus luteus CGMCC 1.0634.
Assay [30] concerns Candida albicans CGMCC 2.2411.
The subject of assay [31] is Shigella flexneri CGMCC 1.1868.
Assay [32] relates to Vibrio parahaemolyticus CGMCC 1.1615.
The subject of assay [33] is Vibrio harveyi CGMCC 1.1593.
Assay [34] concerns Corynebacterium glutamicum CGMCC 1.1886.
Assay [35] has as its system Aeromonas sobria.
In assay [36] the test system is Aeromonas hydrophila CGMCC 1.0927.
Assay [37] relates to Vibrio fluvialis CGMCC 1.1609.
Assay [38] concerns Staphylococcus epidermidis CGMCC 1.2429.
Assay [39] has as its system Staphylococcus aureus CGMCC 1.363.
The subject of assay [40] is Pseudomonas fluorescens CGMCC 1.0032.
Assay [41] relates to Edwardsiella tarda.
Assay [42] concerns Bacillus subtilis CGMCC 1.108.
The test system of assay [43] is Vibrio alginolyticus CGMCC 1.1833.
In assay [44] the test system is Micrococcus luteus CGMCC 1.634.

≈ marks a conversion by molar mass, not a printed value.

For the compound `CC[C@H](C)[C@H](NC(=O)[C@H](CCCCN)NC(=O)[C@H](CC(N)=O)NC(=O)[C@H](CCCCN)NC(=O)[C@H](CC(C)C)NC(=O)[C@H](Cc1ccc(O)cc1)NC(=O)[C@H](CCC(N)=O)NC(=O)[C@H](CCCN=C(N)N)NC(=O)[C@@H](NC(=O)[C@@H](NC(=O)[C@H](CCCCN)NC(=O)[C@H](CCCCN)NC(=O)CNC(=O)[C@H](C)N)[C@@H](C)O)[C@@H](C)CC)C(=O)N[C@@H](CCCCN)C(=O)N[C@@H](CCCCN)C(=O)N[C@@H](CCCCN)C(=O)N[C@@H](Cc1c[nH]c2ccccc12)C(=O)N[C@@H](CCCN=C(N)N)C(=O)N[C@@H](CCCCN)C(=O)N[C@@H](C)C(=O)N[C@H](C(=O)N[C@H](C(=O)N[C@@H](C)C(=O)N[C@@H](Cc1c[nH]c2ccccc12)C(=O)O)[C@@H](C)CC)C(C)C` [AGKKTIRQYLKNKIKKKWRKAVIAW], the minimal inhibitory concentration (MIC) in assay [1] was found to be 8 µM (≈ 24.5 µg/mL); in [2], 10 µM (≈ 30.6 µg/mL); in assay [3], 8 µM (≈ 24.5 µg/mL); in [4] it was 1 µM (≈ 3.06 µg/mL); in assay [5], 8 µM (≈ 24.5 µg/mL).
Regarding `CC[C@H](C)[C@H](NC(=O)[C@H](C)N)C(=O)NCC(=O)N[C@@H](CO)C(=O)N[C@H](C(=O)N[C@@H](CC(C)C)C(=O)NCC(=O)N[C@@H](CCCN=C(N)N)C(=O)N[C@@H](CC(C)C)C(=O)N[C@@H](C)C(=O)N[C@@H](CCCCN)C(=O)NCC(=O)N[C@@H](CC(C)C)C(=O)N1CCC[C@H]1C(=O)N[C@H](C(=O)N[C@@H](CC(C)C)C(=O)N[C@@H](CCCCN)C(=O)N[C@@H](CO)C(=O)N[C@@H](Cc1c[nH]c2ccccc12)C(=O)N[C@H](C(=O)N[C@@H](CCCCN)C(=O)N[C@@H](CC(N)=O)C(=O)N[C@@H](CCCN=C(N)N)C(N)=O)[C@@H](C)CC)[C@@H](C)O)[C@@H](C)CC` [AIGSILGRLAKGLPTLKSWIKNR], the MIC was 25 µM (≈ 62.3 µg/mL) in assay [6]; 25 µM (≈ 62.3 µg/mL) in assay [7]; 6.25 µM (≈ 15.6 µg/mL) in [8]; at least 100 µM in assay [9]; 25 µM (≈ 62.3 µg/mL) in assay [10]; 12.5 µM (≈ 31.2 µg/mL) in assay [11].
For `CC(C)C[C@H](NC(=O)[C@H](CCCCN)NC(=O)[C@H](C)NC(=O)[C@H](CC(C)C)NC(=O)[C@H](CCCCN)NC(=O)[C@H](CCC(N)=O)NC(=O)[C@H](CCCCN)NC(=O)[C@H](CC(C)C)NC(=O)[C@H](CCCCN)NC(=O)[C@H](CCC(N)=O)NC(=O)[C@H](CC(C)C)NC(=O)[C@H](CCCCN)NC(=O)[C@H](C)NC(=O)[C@H](CCCCN)NC(=O)[C@H](CC(C)C)NC(=O)[C@H](CCCCN)NC(=O)[C@H](C)NC(=O)[C@H](CC(C)C)NC(=O)[C@H](CCCCN)NC(=O)[C@H](CCC(N)=O)NC(=O)[C@@H](N)CCCCN)C(=O)O` [KQKLAKLKAKLQKLKQKLAKL], the MIC in [12] is above 50 µM; in [13] it was 3 µM (≈ 7.34 µg/mL); in assay [14], 6 µM (≈ 14.7 µg/mL); in [15], 12 µM (≈ 29.4 µg/mL); in [16] it was 12 µM (≈ 29.4 µg/mL).
Consider `CC(C)C[C@H](NC(=O)[C@H](Cc1c[nH]c2ccccc12)NC(=O)[C@H](CCCCN)NC(=O)[C@H](CC(C)C)NC(=O)[C@H](Cc1c[nH]c2ccccc12)NC(=O)[C@H](CCCCN)NC(=O)[C@H](CCCCN)NC(=O)[C@H](CC(C)C)NC(=O)[C@H](Cc1c[nH]c2ccccc12)NC(=O)[C@@H](N)CCCCN)C(=O)N[C@@H](CCCCN)C(=O)N[C@@H](CCCCN)C(N)=O` [KWLKKWLKWLKK], for which the MIC was found to be 1.19 µM (≈ 2 µg/mL) in assay [17]; 1.19 µM (≈ 2 µg/mL) in assay [18]; 2.37 µM (≈ 4 µg/mL) in [19]; 4.75 µM (≈ 8 µg/mL) in assay [20]; 1.19 µM (≈ 2 µg/mL) in [21]; 9.49 µM (≈ 16 µg/mL) in assay [22]. In addition, the MIC in assay [23], in assay [24] and in [25] was 1.19 µM (≈ 2 µg/mL) in each case.
For the compound `CC(C)C[C@H](NC(=O)CNC(=O)[C@H](CC(N)=O)NC(=O)[C@@H](NC(=O)[C@@H](NC(=O)CNC(=O)[C@H](CC(C)C)NC(=O)[C@H](C)NC(=O)[C@H](CCCCN)NC(=O)[C@H](CC(N)=O)NC(=O)[C@H](CC(C)C)NC(=O)[C@H](CC(C)C)NC(=O)[C@@H](N)CC(N)=O)[C@@H](C)O)C(C)C)C(=O)N[C@@H](CC(C)C)C(=O)NCC(=O)N[C@@H](CCCN=C(N)N)C(=O)N[C@@H](CO)C(=O)O` [NLLNKALGTVNGLLGRS], the minimal inhibitory concentration (MIC) is 32 µM (≈ 55.7 µg/mL) in [26] and at least 64 µM in assay [27].
`CC[C@H](C)[C@H](NC(=O)[C@H](CCCN=C(N)N)NC(=O)CNC(=O)[C@@H](NC(=O)[C@@H]1CCCN1C(=O)[C@H](Cc1ccccc1)NC(=O)[C@H](CCC(N)=O)NC(=O)[C@H](CC(C)C)NC(=O)CNC(=O)[C@H](C)NC(=O)[C@H](CCCN=C(N)N)NC(=O)[C@H](C)NC(=O)[C@H](CO)NC(=O)[C@@H](N)CCCN=C(N)N)C(C)C)C(=O)N[C@@H](Cc1cnc[nH]1)C(=O)N[C@@H](CCCN=C(N)N)C(=O)N[C@@H](Cc1cnc[nH]1)C(=O)N[C@@H](CC(C)C)C(=O)N[C@@H](CCCCN)C(=O)O` [RSARAGLQFPVGRIHRHLK]: the MIC in [28] is 4.24 µM (≈ 9.33 µg/mL); in assay [29], 4.24 µM (≈ 9.33 µg/mL); in assay [30], at least 48 µM; in assay [31] it was 4.24 µM (≈ 9.33 µg/mL); in assay [32] it was at least 48 µM; in [33] it was at least 48 µM. Also, the MIC in assay [34] was 2.12 µM (≈ 4.67 µg/mL); in [35] it was at least 48 µM; in [36] it was 4.24 µM (≈ 9.33 µg/mL); in assay [37] it was at least 48 µM; in [38] it was 17 µM (≈ 37.3 µg/mL); in assay [39] it was 4.24 µM (≈ 9.33 µg/mL). For the same compound, the MIC in assay [40] is 4.24 µM (≈ 9.33 µg/mL); in assay [41] it was at least 48 µM; in assay [42], 4.24 µM (≈ 9.33 µg/mL); in assay [43], at least 48 µM; in assay [44], 2.12 µM (≈ 4.67 µg/mL).
